Tests used:
ALK [1] = biological target: T1, ALK (Homo sapiens, UniProt Q9UM73); test: Inhibition of ALK phosphorylation (sandwich ELISA, pY1604), cell line not given; format: cell-based; parameters: fused on or other part: Q9HC35 (Echinoderm microtubule-associated protein-like 4); conditions: 1 hour, serum-free
Experimental: (§1) Karpas299 and SU-DHL-1 cells were purchased from Deutsche Sammlung von Mikroorganismen and Zellkulturen (Germany). H2228 was purchased from American Type Culture Collection (USA). All cells were cultured in the recommended medium and serum concentration. Cells were maintained at 37° C. in a humidified atmosphere with 5% CO2. For ALK kinase phosphorylation, cells were seeded in 96-well plates overnight in medium supplemented with 10% fetal bovine serum […]. After 24 hours, the medium was removed and cells were cultured in serum-free medium at 37° C. in the presence of various concentrations of the test articles for 1 hour. After incubation with the tested articles, cells were washed once with HBSS supplemented with 1 mM Na3VO4 and protein lysates were generated. Subsequently, phosphorylation of ALK was assessed by a sandwich ELISA method using an immobilized anti-total-ALK antibody and an anti-phospho-ALK antibody (pY1604) as a detection antibody. IC50 value was calculated using median-effect method. (Chou 2006).
Target sequence in this assay (Q9UM73 1058-1620 limits assumed): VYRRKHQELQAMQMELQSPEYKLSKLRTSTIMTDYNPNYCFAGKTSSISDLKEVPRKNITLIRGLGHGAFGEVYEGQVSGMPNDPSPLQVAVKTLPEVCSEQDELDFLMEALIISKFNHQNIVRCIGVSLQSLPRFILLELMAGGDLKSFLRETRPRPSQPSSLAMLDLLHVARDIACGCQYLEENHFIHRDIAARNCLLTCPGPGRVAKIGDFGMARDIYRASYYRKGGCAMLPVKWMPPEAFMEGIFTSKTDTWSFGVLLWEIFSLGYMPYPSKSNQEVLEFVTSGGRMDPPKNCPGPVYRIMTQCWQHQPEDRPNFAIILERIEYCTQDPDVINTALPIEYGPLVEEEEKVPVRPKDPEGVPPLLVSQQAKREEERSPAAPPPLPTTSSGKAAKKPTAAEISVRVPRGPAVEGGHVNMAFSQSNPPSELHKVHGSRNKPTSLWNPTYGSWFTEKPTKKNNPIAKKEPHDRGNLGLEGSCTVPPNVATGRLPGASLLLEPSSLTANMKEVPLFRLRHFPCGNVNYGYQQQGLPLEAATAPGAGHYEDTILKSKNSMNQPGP

ALK [2] = biological target: T1, ALK; test: ALK enzyme activity assay (HTRF KinEASE); format: biochemical; parameters: purchased Millipore Company (Billerica, Mass., USA); conditions: ATP 25 μM, 30° C. 30 minutes
Experimental: ALK Enzyme Activity Assay:
ALK kinase was purchased from Millipore Company (Billerica, Mass., USA). HTRF®KinEASET™ was purchased from Cisbio Company (Bedford, Mass., USA). The assay was conducted according to the procedure provided in the assay kit. In brief, incubation was carried out in the kinase buffer containing ALK (0.3 ng/μL), ATP (25 μM), TK substrate-biotin (10 μM), DTT (1 mM), MgCl2 (5 mM), MnCl2 (5 mM) in the presence of the tested articles at various concentrations in 384-well plate at 30° C. for 30 minutes. The reaction was stopped by addition of Sa-XL665 in EDTA solution, and the phosphorylated substrate was detected with a proprietary phospho-specific monoclonal antibody labeled with Eu^3+-Cryptate and a proprietary biotinylated kinase substrate detected using XL665 labeled streptavidin. IC50 value was calculated using median-effect method (Chou 2006).
Target sequence in this assay (Q9UM73 19-1620): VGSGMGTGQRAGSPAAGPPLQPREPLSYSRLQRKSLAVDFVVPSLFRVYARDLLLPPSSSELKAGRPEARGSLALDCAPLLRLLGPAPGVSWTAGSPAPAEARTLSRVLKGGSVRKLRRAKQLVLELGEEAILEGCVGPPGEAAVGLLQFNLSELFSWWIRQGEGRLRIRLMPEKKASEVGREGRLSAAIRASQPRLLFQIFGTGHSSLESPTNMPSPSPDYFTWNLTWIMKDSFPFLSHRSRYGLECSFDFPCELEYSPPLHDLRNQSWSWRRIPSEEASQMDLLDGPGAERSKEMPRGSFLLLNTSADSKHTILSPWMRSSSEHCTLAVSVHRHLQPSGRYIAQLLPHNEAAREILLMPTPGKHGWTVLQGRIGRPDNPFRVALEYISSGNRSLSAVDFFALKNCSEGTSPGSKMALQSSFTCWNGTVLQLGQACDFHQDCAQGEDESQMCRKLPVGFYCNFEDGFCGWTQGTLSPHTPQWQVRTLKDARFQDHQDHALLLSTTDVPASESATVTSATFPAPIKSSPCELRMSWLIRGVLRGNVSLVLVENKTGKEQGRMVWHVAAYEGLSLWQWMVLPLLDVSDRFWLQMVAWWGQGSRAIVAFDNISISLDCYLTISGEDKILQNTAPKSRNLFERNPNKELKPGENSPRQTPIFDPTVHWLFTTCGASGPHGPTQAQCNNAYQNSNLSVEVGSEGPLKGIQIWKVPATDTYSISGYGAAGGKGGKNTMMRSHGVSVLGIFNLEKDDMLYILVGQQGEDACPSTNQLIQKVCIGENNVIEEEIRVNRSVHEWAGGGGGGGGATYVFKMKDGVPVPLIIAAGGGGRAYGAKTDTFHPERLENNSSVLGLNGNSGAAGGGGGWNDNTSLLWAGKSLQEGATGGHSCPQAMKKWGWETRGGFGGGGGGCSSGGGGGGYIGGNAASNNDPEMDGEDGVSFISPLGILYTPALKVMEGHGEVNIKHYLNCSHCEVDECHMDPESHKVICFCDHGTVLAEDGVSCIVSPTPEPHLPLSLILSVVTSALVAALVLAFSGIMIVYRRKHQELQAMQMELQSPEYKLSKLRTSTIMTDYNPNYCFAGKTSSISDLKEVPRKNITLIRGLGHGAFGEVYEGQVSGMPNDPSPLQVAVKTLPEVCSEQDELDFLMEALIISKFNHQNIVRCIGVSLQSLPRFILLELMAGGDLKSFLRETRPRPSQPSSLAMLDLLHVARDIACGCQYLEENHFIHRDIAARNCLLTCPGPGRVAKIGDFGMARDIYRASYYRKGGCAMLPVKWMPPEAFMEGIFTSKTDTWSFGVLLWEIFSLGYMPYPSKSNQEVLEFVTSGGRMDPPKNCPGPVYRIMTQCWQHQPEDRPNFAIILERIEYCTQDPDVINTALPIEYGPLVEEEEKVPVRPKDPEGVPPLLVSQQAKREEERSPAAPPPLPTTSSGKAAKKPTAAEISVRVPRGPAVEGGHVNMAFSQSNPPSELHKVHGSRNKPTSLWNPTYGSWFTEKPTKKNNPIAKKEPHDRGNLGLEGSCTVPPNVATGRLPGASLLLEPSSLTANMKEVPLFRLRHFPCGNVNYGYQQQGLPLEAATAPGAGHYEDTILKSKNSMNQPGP

H2228 = test: Cell proliferation assay (MTS / BrdU), H2228; format: cell-based; conditions: Homo sapiens, NCI-H2228; 72 hours, 2% FBS
Experimental: as §1
(§2) For cell proliferation assay, cells were seeded in 96-well pates at low density at 37° C. in medium supplemented with 10% FBS and after 24 hours were switched to low serum medium (2% FBS). Cells were further incubated in the presence of the test articles at various concentrations at 37° C. for 72 hours. Two assays were employed to determine the relative cell numbers. One is a 3-(4,5-dimethylthiazol-2-yl)-5-(3-carboxymethoxyphenyl)-2-(4-sulfophenyl)-2H-tetrazolium (MTS) assay using a CellTiter 96® Aqueous Non-Radioactive Cell Proliferation kit (Promega), and the other is a BrdU incorporation assay using a DELFIA® Cell Proliferation Kit (Perkin Elmer). IC50 value was calculated using median-effect method (Chou 2006).

SU-DHL-1 = test: Cell proliferation assay (MTS / BrdU), SU-DHL-1; format: cell-based; conditions: Homo sapiens, 72 hours, 2% FBS
Experimental: as §1, §2

[3] = Pharmacokinetic assay, intravenous and oral administration; format: in vivo, Sprague-Dawley rats or beagle dogs; conditions: plasma
Experimental: The tested articles were given to Sprague-Dawley rats or beagle dogs by intravenous and oral administration. Plasma samples were prepared from blood samples which were collected at various time points. The plasma concentrations of the tested articles were determined by specific LC-MS/MS analytical methods. Pharmacokinetic parameters were calculated with WinNonlin®.

Karpas299 = test: Cell proliferation assay (MTS / BrdU), Karpas299; format: cell-based; conditions: Homo sapiens, KARPAS-299; 72 hours, 2% FBS
Experimental: as §1, §2

Row | Structure (SMILES) | IC50 (ALK [2]) | IC50 (SU-DHL-1) | also measured
1 | CC(Oc1cc(-c2ccc(COP(C)(C)=O)cc2)cnc1N)c1c(Cl)ccc(F)c1Cl (stereo not drawn) [Example 7, 3-[1-(2,6-dichloro-3-fluoro-phenyl)ethoxy]-5-[4-(dimethylphosphoryloxymethyl)phenyl]pyridin-2-amine] | 100 to 500 nM |  | 
2 | CC(Oc1cc(-c2ccc(P(C)(C)=O)c3ccccc23)cnc1N)c1c(Cl)ccc(F)c1Cl (stereo not drawn) [Example 9, 3-[1-(2,6-dichloro-3-fluoro-phenyl)ethoxy]-5-(4-dimethylphosphoryl-1-naphthyl)pyridin-2-amine] | 1000 to 5000 nM |  | 
3 | COc1cc(-c2cnc(N)c(OC(C)c3c(Cl)ccc(F)c3Cl)c2)c(F)cc1P(C)(C)=O (stereo not drawn) [Example 10, 3-[1-(2,6-dichloro-3-fluoro-phenyl)ethoxy]-5-(4-dimethylphosphoryl-2-fluoro-5-methoxy-phenyl)pyridin-2-amine] | 1000 to 5000 nM |  | 
4 | CC(Oc1nc(-c2ccc(P(C)(C)=O)cc2)cnc1N)c1c(Cl)ccc(F)c1Cl (stereo not drawn) [Example 11, 3-[1-(2,6-dichloro-3-fluoro-phenyl)ethoxy]-5-(4-dimethylphosphorylphenyl)pyrazin-2-amine] | 100 to 500 nM | 100 to 500 nM | 
5 | CC(Oc1cc(-c2ccc(P(C)(C)=O)c(F)c2)cnc1N)c1c(Cl)ccc(F)c1Cl (stereo not drawn) [Example 14, 3-[1-(2,6-dichloro-3-fluoro-phenyl)ethoxy]-5-(4-dimethylphosphoryl-3-fluoro-phenyl)pyridin-2-amine] | 1000 to 5000 nM | 1000 to 5000 nM | 
6 | CC(Oc1cc(-c2ccc(P(C)(C)=O)cc2C(F)(F)F)cnc1N)c1c(Cl)ccc(F)c1Cl (stereo not drawn) [Example 15, 3-[1-(2,6-dichloro-3-fluoro-phenyl)ethoxy]-5-[4-dimethylphosphoryl-2-(trifluoromethyl)phenyl]pyridin-2-amine] | 500 to 1000 nM |  | 
7 | CC(Oc1cc(-c2ccc(P(C)(C)=O)nc2)cnc1N)c1c(Cl)ccc(F)c1Cl (stereo not drawn) [Example 16, 3-[1-(2,6-dichloro-3-fluoro-phenyl)ethoxy]-5-(6-dimethylphosphoryl-3-pyridyl)pyridin-2-amine] | 500 to 1000 nM | 1000 to 5000 nM | 
8 | CC(Oc1cc(-c2ccc(P(C)(C)=O)cc2O)cnc1N)c1c(Cl)ccc(F)c1Cl (stereo not drawn) [Example 17, 2-[6-amino-5-[1-(2,6-dichloro-3-fluoro-phenyl)ethoxy]-3-pyridyl]-5-dimethylphosphoryl-phenol] | 100 to 500 nM | < 100 nM | 
9 | CC(Oc1cc(-c2ccc(P(C)(C)=O)cn2)cnc1N)c1c(Cl)ccc(F)c1Cl (stereo not drawn) [Example 18, 3-[1-(2,6-dichloro-3-fluoro-phenyl)ethoxy]-5-(5-dimethylphosphoryl-2-pyridyl)pyridin-2-amine] | 100 to 500 nM | 100 to 500 nM | IC50 (Karpas299): 100 to 500 nM
10 | CC(Oc1cc(-c2ccc(P(C)(C)=O)cc2Cl)cnc1N)c1c(Cl)ccc(F)c1Cl (stereo not drawn) [Example 19, 5-(2-chloro-4-dimethylphosphoryl-phenyl)-3-[1-(2,6-dichloro-3-fluoro-phenyl)ethoxy]pyridin-2-amine] | 100 to 500 nM | 100 to 500 nM | 
11 | CC(Oc1cc(-c2ccc(P(C)(C)=O)cc2OC(F)(F)F)cnc1N)c1c(Cl)ccc(F)c1Cl (stereo not drawn) [Example 20, 3-[1-(2,6-dichloro-3-fluoro-phenyl)ethoxy]-5-[4-dimethylphosphoryl-2-(trifluoromethoxy)phenyl]pyridin-2-amine] | 500 to 1000 nM | 100 to 500 nM | 
12 | CC(Oc1cc(-c2ccc(P(C)(C)=O)cc2)cnc1N)c1cc(Cl)ccc1Cl (stereo not drawn) [Example 21, 3-[1-(2,5-dichlorophenyl)ethoxy]-5-(4-dimethylphosphorylphenyl)pyridin-2-amine] | 100 to 500 nM | < 100 nM | 
13 | CC(Oc1cc(-c2ccc(P(C)(C)=O)cc2)cnc1N)c1cc(F)ccc1Cl (stereo not drawn) [Example 22, 3-[1-(2-chloro-5-fluoro-phenyl)ethoxy]-5-(4-dimethylphosphorylphenyl)pyridin-2-amine] | 100 to 500 nM | < 100 nM | 
14 | CCOP(=O)(OCC)c1ccc(-c2cnc(N)c(OC(C)c3cc(F)ccc3Cl)c2)cc1 (stereo not drawn) [Example 26, 3-[1-2-(2-chloro-5-fluoro-phenyl)ethoxy]-5-(4-diethoxyphosphorylphenyl)pyridine-2-amine] | 500 to 1000 nM |  | 
15 | CCOP(=O)(OCC)c1ccc(-c2cnc(N)c(O[C@H](C)c3c(Cl)ccc(F)c3Cl)c2)cc1 [Example 28, 3-[(1R)-1-2-(2,6-dichloro-3-fluoro-phenyl)ethoxy]-5-(4-diethoxyphosphorylphenyl)pyridine-2-amine] | 100 to 500 nM | 1000 to 5000 nM | 

Continued, in another order:

Row | IC50 (ALK [2]) | IC50 (SU-DHL-1) | Structure (SMILES) | also measured
16 | < 100 nM |  | CC(Oc1cc(-c2cnn(C3CCN(CP(C)(C)=O)CC3)c2)cnc1N)c1c(Cl)ccc(F)c1Cl (stereo not drawn) [Example 2, 3-[1-(2,6-dichloro-3-fluoro-phenyl)ethoxy]-5-[1-[1-(dimethylphosphorylmethyl)-4-piperidyl]pyrazol-4-yl]pyridin-2-amine] | IC50 (ALK [1]): < 500 nM; IC50 (H2228): 1000 to 5000 nM
17 | 100 to 500 nM |  | CC(Oc1cc(-c2cnn(CP(C)(C)=O)c2)cnc1N)c1c(Cl)ccc(F)c1Cl (stereo not drawn) [Example 3, 3-[1-(2,6-dichloro-3-fluoro-phenyl)ethoxy]-5-[1-(dimethylphosphorylmethyl)pyrazol-4-yl]pyridin-2-amine] | 
18 | 100 to 500 nM |  | CC(Oc1cc(-c2ccc(CN(CP(C)(C)=O)CP(C)(C)=O)cc2)cnc1N)c1c(Cl)ccc(F)c1Cl (stereo not drawn) [Example 4, 5-[4-[(bis(dimethylphosphorylmethyl)amino)methyl]phenyl]-3-[1-(2,6-dichloro-3-fluoro-phenyl)ethoxy]pyridin-2-amine] | IC50 (H2228): 1000 to 5000 nM
19 | 100 to 500 nM | 1000 to 5000 nM | CC(Oc1cc(-c2ccc(CNCP(C)(C)=O)cc2)cnc1N)c1c(Cl)ccc(F)c1Cl (stereo not drawn) [Example 5, 3-[1-(2,6-dichloro-3-fluoro-phenyl)ethoxy]-5-[4-[(dimethylphosphorylmethylamino)methyl]phenyl]pyridin-2-amine] | IC50 (H2228): 100 to 500 nM
20 | 100 to 500 nM | 1000 to 5000 nM | CC(Oc1cc(-c2cncc(P(C)(C)=O)c2)cnc1N)c1c(Cl)ccc(F)c1Cl (stereo not drawn) [Example 6, 3-[1-(2,6-dichloro-3-fluoro-phenyl)ethoxy]-5-(5-dimethylphosphoryl-3-pyridyl)pyridin-2-amine] | IC50 (H2228): 100 to 500 nM
21 | < 100 nM |  | COc1cc(-c2cnc(N)c(OC(C)c3c(Cl)ccc(F)c3Cl)c2)ccc1P(C)(C)=O (stereo not drawn) [Example 12, 3-[1-(2,6-dichloro-3-fluoro-phenyl)ethoxy]-5-(4-dimethylphosphoryl-3-methoxy-phenyl)pyridin-2-amine] | 
22 | < 100 nM | 100 to 500 nM | CC(Oc1cc(-c2ccc(P(C)(C)=O)cc2F)cnc1N)c1c(Cl)ccc(F)c1Cl (stereo not drawn) [Example 13, 3-[1-(2,6-dichloro-3-fluoro-phenyl)ethoxy]-5-(4-dimethylphosphoryl-2-fluoro-phenyl)pyridin-2-amine] | half-life ([3]; after oral administration in rats or dogs): > 3 h; bioavailability ([3]; oral administration in rats or dogs, read-out: oral bioavailabilty): > 20%; IC50 (Karpas299): < 100 nM
23 | < 100 nM | 1000 to 5000 nM | CC(Oc1cc(-c2ccc(P(=O)(O)O)cc2)cnc1N)c1cc(F)ccc1Cl (stereo not drawn) [Example 27, [4-(6-amino-5-[1-(2-chloro-5-fluoro-phenyl)ethoxyl]-3-pyridyl]phenyl]phosphonic acid] | 
24 | < 100 nM | 1000 to 5000 nM | C[C@@H](Oc1cc(-c2ccc(P(=O)(O)O)cc2)cnc1N)c1c(Cl)ccc(F)c1Cl [Example 29, [4-(6-amino-5-[(1R)-1-(2,6-dichloro-3-fluoro-phenyl)ethoxyl]-3-pyridyl]phenyl]phosphonic acid] | 

Source: patent US8951993B2, “Phosphorus containing compounds as protein kinase inhibitors” (Jiangsu Hansoh Pharmaceutical Co., Ltd., priority 2011, dated 2015)
